Data taken from patent publication US8466200B2, “2-adamantylurea derivatives as selective 11β-HSD1 inhibitors” (Merck Patent GmbH, priority 2005, dated 2013).
Read-outs that look alike come from different tables or passages of the source.

Experiments:
mouse 11-beta HSD1 = mouse 11-beta HSD1 (Mus musculus, UniProt P50172); test: 11 beta-HSD1 enzyme assay, mice liver microsome fractions
Description: (§1) Human recombinant 11 beta-hydroxysteroid dehydrogenase type 1 (11 beta-HSD1) and type 2 (11 beta-HSD2) enzymes were expressed in E. coli. Rat and mice liver microsome fractions were purchased from TEBU.
(§2) The 11 beta-HSD1 enzyme assay was carried out in 96 well microtiter plates in a total volume of 100 μl containing 30 mM HEPES buffer, pH 7,4 with 1 mM EDTA, substrate mixture cortisone/NADPH (200 nM/200 μM), G-6-P (1 mM) and inhibitors in serial dilutions. Reactions were initiated by addition of 10 μl 11beta-HSD1 (3 μg) from E. coli, either as microsome fractions from rat or mice liver (2.5 μg). Following mixing, the plates were shaken for 150 minutes at 37° C. The reactions were terminated with 100 Acid-18beta glycyrrhetinic stop solution. Determinations of cortisol levels in 11 beta-HSD1 preparations were monitored by HTRF (HTRF cortisol assay from C is bio international).

rat 11-beta HSD1 = rat 11-beta HSD1 (Rattus norvegicus, UniProt P16232); test: 11 beta-HSD1 enzyme assay, rat liver microsome fractions; assay type: biochemical; settings: read-out: Inhibition of rat 11-beta HSD1 IC50
rat 11-beta HSD1, sequence (P16232 whole entry): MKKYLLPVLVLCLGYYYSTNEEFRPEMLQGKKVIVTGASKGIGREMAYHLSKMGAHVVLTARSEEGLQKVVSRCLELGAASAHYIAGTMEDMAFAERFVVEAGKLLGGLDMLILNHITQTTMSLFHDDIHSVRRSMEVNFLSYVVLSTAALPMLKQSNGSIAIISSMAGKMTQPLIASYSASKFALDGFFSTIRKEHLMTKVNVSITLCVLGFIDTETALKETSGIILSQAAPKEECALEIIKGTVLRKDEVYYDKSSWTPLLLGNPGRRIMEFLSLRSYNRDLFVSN
Description: as §1, §2

human 11-beta HSD1 = target: T1, human 11-beta HSD1 (Homo sapiens, UniProt P28845); test: 11 beta-HSD1 enzyme assay (HTRF cortisol), human recombinant enzyme; assay type: biochemical; settings: read-out: Inhibition of human 11-beta HSD1 IC50
T1 construct: made in house; host or cells: E. coli
T1 sequence (P28845 whole entry): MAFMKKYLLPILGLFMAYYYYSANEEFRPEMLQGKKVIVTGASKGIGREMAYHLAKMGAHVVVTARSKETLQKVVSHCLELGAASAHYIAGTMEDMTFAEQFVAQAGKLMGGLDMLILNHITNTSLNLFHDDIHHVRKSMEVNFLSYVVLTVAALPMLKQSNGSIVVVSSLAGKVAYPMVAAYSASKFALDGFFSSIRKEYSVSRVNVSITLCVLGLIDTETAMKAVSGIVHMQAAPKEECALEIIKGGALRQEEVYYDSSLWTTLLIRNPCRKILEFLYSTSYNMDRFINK
Description: as §1, §2

human 11-beta HSD2 = target: T2, human 11-beta HSD2 (Homo sapiens, UniProt P80365); test: 11 beta-HSD2 enzyme assay, human recombinant enzyme; assay type: biochemical; settings: selectivity table, Example 10; read-out: Inhibition of human 11-beta HSD2 IC50
T2 construct: made in house; host or cells: E. coli
T2 sequence (P80365 1-405): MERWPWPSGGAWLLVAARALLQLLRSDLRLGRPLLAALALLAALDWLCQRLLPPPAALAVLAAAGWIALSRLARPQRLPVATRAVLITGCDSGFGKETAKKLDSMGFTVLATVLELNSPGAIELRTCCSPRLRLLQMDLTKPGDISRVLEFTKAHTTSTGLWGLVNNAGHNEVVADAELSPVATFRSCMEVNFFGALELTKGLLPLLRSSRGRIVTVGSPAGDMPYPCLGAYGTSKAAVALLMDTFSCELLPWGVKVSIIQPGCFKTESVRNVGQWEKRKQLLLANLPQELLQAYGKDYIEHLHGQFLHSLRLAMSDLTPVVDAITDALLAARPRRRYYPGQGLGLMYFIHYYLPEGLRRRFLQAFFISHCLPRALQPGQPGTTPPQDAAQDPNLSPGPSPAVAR
From the text: This assay was similarly applied to 11beta-HSD2, whereby cortisol, NAD, and carbenoxolon were used as the substrate, cofactor and stopping agent, respectively.

[1] = recombinant enzyme from E. coli

mouse 11-beta HSD1, sequence (P50172 whole entry): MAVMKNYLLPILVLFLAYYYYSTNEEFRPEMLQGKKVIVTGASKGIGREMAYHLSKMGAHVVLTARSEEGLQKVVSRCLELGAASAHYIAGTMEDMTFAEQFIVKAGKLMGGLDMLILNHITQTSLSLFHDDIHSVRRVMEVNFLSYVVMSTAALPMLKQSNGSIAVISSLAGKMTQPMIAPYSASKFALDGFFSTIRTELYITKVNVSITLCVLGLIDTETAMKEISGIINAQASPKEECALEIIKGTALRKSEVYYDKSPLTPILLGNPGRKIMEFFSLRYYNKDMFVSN

For COc1ccc(NC(=O)NC2C3CC4CC(C3)CC2C4)c(C)c1 (centres unmarked) [Ex 1, 1-Adamantan-2-yl-3-(4-methoxy-2-methyl-phenyl)-urea], the IC50 (mouse 11-beta HSD1) was 97 nM, the IC50 (rat 11-beta HSD1) was 190 nM and the IC50 (human 11-beta HSD1; [1]) was 15 nM. The melting point was 186 °C.

For O=C(Nc1ccccc1C(F)(F)F)NC1C2CC3CC(C2)CC1C3 (centres unmarked) [Ex 1-3, 1-Adamantan-2-yl-3-(2-trifluoromethyl-phenyl)-urea], the IC50 (human 11-beta HSD1; [1]) was 340 nM.

COc1cc(NC(=O)NC2C3CC4CC(C3)CC2C4)cc(OC)c1 (centres unmarked) [Ex 1-7, 1-Adamantan-2-yl-3-(3,5-dimethoxy-phenyl)-urea] showed an IC50 (human 11-beta HSD1; [1]) of 270 nM.

O=C(NCCc1ccccc1)NC1C2CC3CC(C2)CC1C3 (centres unmarked) [Ex 1-12, 1-Adamantan-2-yl-3-phenethyl-urea] showed an IC50 (mouse 11-beta HSD1) of 440 nM, an IC50 (rat 11-beta HSD1) of 8 nM and an IC50 (human 11-beta HSD1; [1]) of 430 nM.

O=C(NCCc1cccs1)NC1C2CC3CC(C2)CC1C3 (centres unmarked) [Ex 1-16, 1-Adamantan-2-yl-3-(2-thiophen-2-yl-ethyl)-urea] showed an IC50 (human 11-beta HSD1; [1]) of 43 nM.

Molecule CCc1cccc(NC(=O)NC2C3CC4CC(C3)CC2C4)c1 (centres unmarked) [Ex 1-20, 1-Adamantan-2-yl-3-(3-ethyl-phenyl)-urea] has an IC50 (human 11-beta HSD1; [1]) of 67 nM.

O=C(Nc1ccc2ccccc2c1)NC1C2CC3CC(C2)CC1C3 (centres unmarked) [Ex 1-23, 1-Adamantan-2-yl-3-naphthalen-2-yl-urea] gave an IC50 (human 11-beta HSD1; [1]) of 57 nM.

O=C(Nc1cc(Cl)nc(Cl)c1)NC1C2CC3CC(C2)CC1C3 (centres unmarked) [Ex 1-26, 1-Adamantan-2-yl-3-(2,6-dichloro-pyridin-4-yl)-urea] showed an IC50 (human 11-beta HSD1; [1]) of 670 nM.

In the case of Cc1cccc(CNC(=O)NC2C3CC4CC(C3)CC2C4)c1 (centres unmarked) [Ex 1-34, 1-Adamantan-2-yl-3-(3-methyl-benzyl)-urea], the IC50 (human 11-beta HSD1; [1]) is reported as 740 nM.

In the case of O=C(NC1CCCC1)NC1C2CC3CC(C2)CC1C3 (centres unmarked) [Ex 1-39, 1-Adamantan-2-yl-3-cyclopentyl-urea], the IC50 (mouse 11-beta HSD1) is reported as 355 nM, the IC50 (rat 11-beta HSD1) is reported as 47 nM and the IC50 (human 11-beta HSD1; [1]) is reported as 370 nM.

For O=C(NCc1ccco1)NC1C2CC3CC(C2)CC1C3 (centres unmarked) [Ex 1-44, 1-Adamantan-2-yl-3-furan-2-ylmethyl-urea], the IC50 (mouse 11-beta HSD1) was 3440 nM and the IC50 (human 11-beta HSD1; [1]) was 2100 nM.

Work on C[C@@H](NC(=O)NC1C2CC3CC(C2)CC1C3)c1ccccc1 (stereo partly drawn) [Ex 1-61, 1-Adamantan-2-yl-3-((R)-1-phenyl-ethyl)-urea] yielded an IC50 (human 11-beta HSD1; [1]) of 16 nM.

Molecule O=C(NC1C2CC3CC(C2)CC1C3)N1CCCC1 (centres unmarked) [Ex 3-3, Pyrrolidine-1-carboxylic acid adamantan-2-ylamide] has an IC50 (rat 11-beta HSD1) of 1320 nM and an IC50 (human 11-beta HSD1; [1]) of 720 nM.

Cc1c(NC(=O)NC2C3CC4CC(C3)CC2C4)cccc1C(=O)O (centres unmarked) [Ex 6, 3-(3-Adamantan-2-yl-ureido)-2-methyl-benzoic acid] gave an IC50 (human 11-beta HSD1; [1]) of 550 nM.

Molecule Cc1cc(O)ccc1NC(=O)NC1C2CC3CC(C2)CC1C3 (centres unmarked) [Ex 7, 1-Adamantan-2-yl-3-(4-hydroxy-2-methyl-phenyl)-urea] has a melting point of 212 to 214 °C.

Work on Cc1cc(OCCN2CCCCC2)ccc1NC(=O)NC1C2CC3CC(C2)CC1C3 (centres unmarked) [Ex 8, 1-Adamantan-2-yl-3-(2-methyl-4-(2-piperidin-1-yl-ethoxyl)phenyl)-urea] yielded an IC50 (mouse 11-beta HSD1; read-out: Inhibition of mouse 11-beta HSD1 IC50, mice liver microsome fractions) of 1240 nM and an IC50 (rat 11-beta HSD1) of 1460 nM.

With COc1ccc(NC(=O)NC2C3CC4CC(C3)CC2C4)c(C)c1 (centres unmarked) [drawing 13] the IC50 (human 11-beta HSD2) was > 10 µM and the IC50 (human 11-beta HSD1; selectivity table, Example 10) was 12 nM.

For O=C(NC1CCCC1)NC1C2CC3CC(C2)CC1C3 (centres unmarked) [drawing 14], the IC50 (human 11-beta HSD2) was > 10 µM and the IC50 (human 11-beta HSD1; selectivity table, Example 10) was 370 nM.

With C[C@@H](NC(=O)NC1C2CC3CC(C2)CC1C3)c1ccccc1 (some centres unmarked) [drawing 15] the IC50 (human 11-beta HSD2) was > 10 µM and the IC50 (human 11-beta HSD1; selectivity table, Example 10) was 16 nM.
